According to patent US20150231236A1, “METHODS FOR TREATING PATIENTS WITH HYPERCHOLESTEROLEMIA THAT IS NOT ADEQUATELY CONTROLLED BY MODERATE-DOSE STATIN THERAPY” (Regeneron Pharmaceuticals, Inc., priority 2014, published 2015):

Tests used:
[1] = test system: patients with hypercholesterolemia at high CV risk not adequately controlled with rosuvastatin (10 mg or 20 mg); assay: Example 3: randomized, double-blind trial, lipid efficacy of mAb316P add-on to rosuvastatin vs EZE add-on or rosuvastatin dose doubling; type: in vivo, human; details: for Proportion of Patients Reaching LDL-C goal (%) / LDL-C W24 % change from baseline, LS mean (SE): week 24; for Proportion of Patients Reaching LDL-C goal (%): LDL-C <70 mg/dL very high risk or <100 mg/dL high risk; for LDL-C W24 % change from baseline, LS mean (SE): ITT population, treatment arm as labelled
Method: The present study was a randomized, double-blind, active-comparator, parallel-group study in patients at high CV risk with non-FH or heFH who are not adequately controlled with rosuvastatin (10 mg or 20 mg) with or without other lipid-modifying therapy (LMT) (excluding EZE). The study design is illustrated in FIG. 2. Patients who entered the study were taking either rosuvastatin 10 mg or rosuvastatin 20 mg. The former patients were randomized to 1 of 3 treatment arms (arms 1 to 3); the latter patients were randomized to 1 of 3 treatment arms (arms 4 to 6). The treatment arms are as follows:
(B) a double-blind treatment period of 24 weeks. […] The patient/caregiver administered subsequent injections outside of the clinic according to the dosing schedule. […] The last dose of daily oral study drugs was administered at week 24.
The first injection of study drug was administered at the clinical site, as soon as possible after the patient was randomized into the study. The patient was monitored at the clinical site for at least 30 minutes following the first injection. The patient/caregiver administered subsequent injections outside of the clinic, according to the dosing schedule.
The primary efficacy endpoint was the percent change in calculated LDL-C from baseline to week 24, which is defined as: 100× (calculated LDL-C value at week 24−calculated LDL-C value at baseline)/calculated LDL-C value at baseline. The baseline calculated LDL-C value was the last LDL-C level obtained before the first double-blind study drug injection. The calculated LDL-C at week 24 was the LDL-C level obtained within the week 24 analysis window and during the main efficacy period. The main efficacy period is defined as the time from the first double-blind study drug injection up to 21 days after the last double-blind study drug injection or up to the upper limit of the week 24 analysis window, whichever comes first.
Total-C, HDL-C, TG, ApoB, ApoA-1, and Lp(a) were directly measured by a central laboratory. LDL-C was calculated using the Friedewald formula. […] Non-HDL-C was calculated by subtracting HDL-C from the total-C. Ratio ApoB/ApoA-1 was calculated.
For clarification, the ITT analysis is defined for patients in the ITT population and includes all endpoint assessments in an analysis window, regardless of study treatment dosing status (i.e. includes post-treatment assessments). The on-treatment analysis is defined for patients in the mITT population and includes all endpoint assessments from the first double-blind study drug (capsule or injection, whichever comes first) up to 21 days after the last double-blind study drug injection or 3 days after the last capsule intake, whichever comes first (i.e. includes assessments in the efficacy treatment period).

[2] = test system: patients with hypercholesterolemia at high CV risk not adequately controlled with rosuvastatin (10 mg or 20 mg); assay: Example 3: safety, treatment-emergent adverse events in pooled treatment groups; details: Safety Population; pooled treatment groups
[3] = Week 4, baseline rosuvastatin 10 mg
[4] = Week 4, baseline rosuvastatin 20 mg
[5] = Week 8, baseline rosuvastatin 10 mg
[6] = Week 8, baseline rosuvastatin 20 mg
[7] = Week 12, baseline rosuvastatin 10 mg
[8] = Week 12, baseline rosuvastatin 20 mg
[9] = Week 16, baseline rosuvastatin 10 mg
[10] = Week 16, baseline rosuvastatin 20 mg
[11] = Week 24, baseline rosuvastatin 10 mg
[12] = Week 24, baseline rosuvastatin 20 mg

**Q.** Which results are given for `CC(C)c1nc(N(C)S(C)(=O)=O)nc(-c2ccc(F)cc2)c1/C=C/[C@@H](O)C[C@@H](O)CC(=O)O` [rosuvastatin, reference compound]?
**A.** Proportion of Patients Reaching LDL-C goal (%) ([1]; Baseline Rosuvastatin 10 mg): 45.0%; Proportion of Patients Reaching LDL-C goal (%) ([1]; Baseline Rosuvastatin 20 mg): 40.1%; Calculated LDL-C LS mean (SE) Value ([1]; Baseline, baseline rosuvastatin 10 mg): 105.9 (5.2) mg/dL; Calculated LDL-C LS mean (SE) Value ([1]; Baseline, baseline rosuvastatin 20 mg): 113.7 (6.0) mg/dL; LDL-C W24 % change from baseline, LS mean (SE) ([1]; listed as RSV 20): −16.3%; LDL-C W24 % change from baseline, LS mean (SE) ([1]; listed as RSV 40): −15.9%; Calculated LDL-C LS mean (SE) Value [1, 3]: 89.1 (3.6) mg/dL; Calculated LDL-C LS mean (SE), % Change from Baseline [1, 3]: −13.1 (3.2) %; Calculated LDL-C LS mean (SE), Change from Baseline [1, 3]: −16.2 (3.6); Calculated LDL-C LS mean (SE) Value [1, 4]: 92.0 (3.4) mg/dL; Calculated LDL-C LS mean (SE), % Change from Baseline [1, 4]: −20.0 (5.3) %; Calculated LDL-C LS mean (SE), Change from Baseline [1, 4]: −25.1 (3.4); Calculated LDL-C LS mean (SE) Value [1, 5]: 85.4 (4.3) mg/dL; Calculated LDL-C LS mean (SE), % Change from Baseline [1, 5]: −17.0 (3.8) %; Calculated LDL-C LS mean (SE), Change from Baseline [1, 5]: −19.9 (4.3); Calculated LDL-C LS mean (SE) Value [1, 6]: 91.9 (4.3) mg/dL; Calculated LDL-C LS mean (SE), % Change from Baseline [1, 6]: −21.2 (5.7) %; Calculated LDL-C LS mean (SE), Change from Baseline [1, 6]: −25.2 (4.3); Calculated LDL-C LS mean (SE) Value [1, 7]: 85.7 (4.1) mg/dL; Calculated LDL-C LS mean (SE), % Change from Baseline [1, 7]: −17.1 (4.1) %; Calculated LDL-C LS mean (SE), Change from Baseline [1, 7]: −19.6 (4.1); Calculated LDL-C LS mean (SE) Value [1, 8]: 90.4 (4.3) mg/dL; Calculated LDL-C LS mean (SE), % Change from Baseline [1, 8]: −22.1 (5.3) %; Calculated LDL-C LS mean (SE), Change from Baseline [1, 8]: −26.6 (4.3); Calculated LDL-C LS mean (SE) Value [1, 9]: 83.6 (4.7) mg/dL; Calculated LDL-C LS mean (SE), % Change from Baseline [1, 9]: −19.3 (4.8) %; Calculated LDL-C LS mean (SE), Change from Baseline [1, 9]: −21.6 (4.7); Calculated LDL-C LS mean (SE) Value [1, 10]: 93.8 (4.8) mg/dL; Calculated LDL-C LS mean (SE), % Change from Baseline [1, 10]: −18.5 (6.3) %; Calculated LDL-C LS mean (SE), Change from Baseline [1, 10]: −23.3 (4.8); Calculated LDL-C LS mean (SE) Value [1, 11]: 85.4 (4.3) mg/dL; Calculated LDL-C LS mean (SE), % Change from Baseline [1, 11]: −16.3 (4.1) %; Calculated LDL-C LS mean (SE), Change from Baseline [1, 11]: −19.9 (4.3); Calculated LDL-C LS mean (SE) Value [1, 12]: 95.5 (5.7) mg/dL; Calculated LDL-C LS mean (SE), % Change from Baseline [1, 12]: −15.9 (7.1) %; Calculated LDL-C LS mean (SE), Change from Baseline [1, 12]: −21.5 (5.7); proportion of patients who reached LDL-C level of <70 mg/dL (1.81 mmol/L) at Week 24 ([1]; baseline rosuvastatin 10 mg regimen): 31.3%; proportion of patients who reached LDL-C level of <70 mg/dL (1.81 mmol/L) at Week 24 ([1]; baseline rosuvastatin 20 mg regimen): 29.9%; General Allergic TEAEs [2]: 7 (6.9%) patients (%); SOC General disorders and administration site conditions [2]: 10 (9.9%) patients (%); SOC Psychiatric disorders [2]: 3 (3.0%) patients (%); SOC Respiratory, thoracic and mediastinal disorders [2]: 5 (5.0%) patients (%); SOC Skin and subcutaneous tissue disorders [2]: 6 (5.9%) patients (%); TEAEs [2]: 68 (67.3%) patients (%); Treatment-emergent SAEs [2]: 8 (7.9%) patients (%); Treatment-emergent cardiovascular events adjudicated positively [2]: 1 (1.0%) patients (%); Treatment-emergent neurocognitive disorders [2]: 2 (2.0%) patients (%); Treatment-emergent neurologic disorders [2]: 2 (2.0%) patients (%); cough [2]: 3 (3.0%) patients (%); discontinued study treatment early due to a treatment emergent adverse event [2]: 5 (5.0%) patients (%); injection site reactions (ISRs) [2]: 2 (2.0%) patients (%)
